According to patent US12006289B2, “Potassium channel inhibitors” (Saniona A/S, priority 2019, dated 2024):

What follows are molecules tested against erythrocyte KCa3.1 channels (Homo sapiens (Human), UniProt O15554) (assay: Erythrocyte KCa3.1 assay). Conditions: human erythrocytes, A23187-activated, 37° C.; read-out: RBC K (in vitro) Human IC50.
Format: cell-based
Protocol: Human blood was drawn from healthy human volunteers in a standard heparinized blood sampling vial (Vacutainer, Li/heparin, BD Bioscience, Plymouth, UK). The erythrocytes were packed by centrifugation, and the plasma and buffy coat were removed by aspiration. Erythrocytes were washed three times in the experimental salt solution and then stored at 0° C. until use. Blood samples from NMRI mice or from Wistar rats were treated similarly. The methodological principle is outlined in Macey et al. (1978) and further described in Strøbæk et al. (2013). Activation of the erythrocyte KCa3.1 channels were obtained by addition of the Ca^2+ ionophore A23187, which causes synchronized hyperpolarization, which is reported as a CCCP-mediated shift in the unbuffered extracellular pH of the erythrocyte suspension. Standard procedure: 3 mL unbuffered experimental salt solution (in mM: 2 KCl, 154 NaCl, 0.05 CaCl2) was heated to 37° C. with stirring. Packed erythrocytes were added (50 μL, final cytocrit 1.5%), and the extracellular pH (pHo) followed with a glass/calomel (pHG200-8/REF200, Radiometer, Denmark) electrode pair. CCCP (3 μL, final concentration 20 μM) was added followed by varying concentrations of test compounds (DMSO concentration constant). After pH stabilization at ˜7.2, A23187 (3 μL, final concentration 0.33 μM) was added to initiate the experiment. After the peak hyperpolarization was attained, the intracellular pH (pHi constant during the experiment) was found by haemolysing the erythrocytes via addition of 100 μL of Triton-X100.
The erythrocyte membrane potential, Vm, was calculated according to: Vm=−61.5 mV×(pHo−pHi) and the fractional remaining Ca^2+-activated K^+-conductance at the concentration C of blocker, fGK(C), was calculated from
[formula] where the K^+ equilibrium potential EK=−107 mV, the Cl^− equilibrium potential ECl=−12 mV and the Vm(0) and Vm(C) are the peak hyperpolarizations in the control and in the presence of a concentration of C of blocker respectively.
IC50 values for compounds were calculated from a plot of fGK(C) versus C by a fit to the Hill equation, using a custom program written in the IGOR-Pro software (WaveMetrics, Lake Oswego, OR, USA). All IC50-values are reported in μM.

Row | SMILES | IC50 [nM]
1 | Fc1ccc(C2(N(CC3CC3)C3CNC3)CC2)cc1C(F)(F)F [[6], N-(cyclopropylmethyl)-N-(1-(4-fluoro-3-(trifluoromethyl)phenyl)cyclopropyl)azetidin-3-amine] | 190
2 | CC(C)(N)CN(C1CCC1)C1(c2cccc(C(F)(F)F)c2)CC1 [[18], N1-cyclobutyl-2-methyl-N1-(1-(3-(trifluoromethyl)phenyl)cyclopropyl)propane-1,2-diamine] | 18
3 | COC(=O)N(C1CNC1)C1(c2ccc(F)c(C(F)(F)F)c2)CC1 [[5], Methyl azetidin-3-yl(1-(4-fluoro-3-(trifluoromethyl)phenyl)cyclopropyl)carbamate] | 310
4 | COC(=O)N(CC(C)(C)NO)C1(c2ccc(F)c(C(F)(F)F)c2)CC1 [[33], Methyl (1-(4-fluoro-3-(trifluoromethyl)phenyl)cyclopropyl)(2-(hydroxyamino)-2-methylpropyl)carbamate] | 120
5 | COC(=O)N1CC(N(C(=O)OC)C2(c3ccc(F)c(C(F)(F)F)c3)CC2)C1 [[4], Methyl 3-((1-(4-fluoro-3-(trifluoromethyl)phenyl)cyclopropyl) (methoxycarbonyl)amino)azetidine-1-carboxylate] | 71
6 | COC(=O)N(C[C@H]1CCCN1)C1(c2ccc(F)c(OC(F)(F)F)c2)CC1 [[29], Methyl (R)-(1-(4-fluoro-3-(trifluoromethoxy)phenyl)cyclopropyl)(pyrrolidin-2-ylmethyl)carbamate] | 330
7 | COC(=O)N(CC1CCN1C)C1(c2ccc(F)c(C(F)(F)F)c2)CC1 (stereo not shown) [[30], Methyl (1-(4-fluoro-3-(trifluoromethyl)phenyl)cyclopropyl)((1-methylazetidin-2-yl)methyl)carbamate] | 170
8 | COC(=O)N(CCN)C1(c2ccc(F)c(C(F)(F)F)c2)CC1 [[7], Methyl (2-aminoethyl)(1-(4-fluoro-3-(trifluoromethyl)phenyl)cyclopropyl)carbamate] | 480
9 | COC(=O)N(CC(C)(C)N)C1(c2ccc(F)c(OC(F)(F)F)c2)CC1 [[20], Methyl (2-amino-2-methylpropyl)(1-(4-fluoro-3-(trifluoromethoxy)phenyl)cyclopropyl)carbamate] | 92
10 | COC(=O)N(C[C@@H]1CCCN1)C1(c2ccc(F)c(OC(F)(F)F)c2)CC1 [[28], Methyl (S)-(1-(4-fluoro-3-(trifluoromethoxy)phenyl)cyclopropyl)(pyrrolidin-2-ylmethyl)carbamate] | 87
11 | COC(=O)N(CC(C)(C)NC(C)=O)C1(c2ccc(F)c(C(F)(F)F)c2)CC1 [[24], Methyl (2-acetamido-2-methylpropyl)(1-(4-fluoro-3-(trifluoromethyl)phenyl)cyclopropyl)carbamate] | 310
12 | CC(C)(N)CNC1(c2ccc(F)c(C(F)(F)F)c2)CC1 [[25], N1-(1-(4-fluoro-3-(trifluoromethyl)phenyl)cyclopropyl)-2-methylpropane-1,2-diamine] | 180
13 | CCOC(=O)N(CC(C)(C)N)C1(c2ccc(F)c(C(F)(F)F)c2)CC1 [[19], Ethyl (2-amino-2-methylpropyl)(1-(4-fluoro-3-(trifluoromethyl)phenyl)cyclopropyl)carbamate] | 47
14 | COC(=O)N(CC(C)(C)N)C1(c2cccc(C(F)(F)F)c2)CC1 [[15], Methyl (2-amino-2-methylpropyl)(1-(3-(trifluoromethyl)phenyl)cyclopropyl)carbamate] | 140
15 | CS(=O)(=O)N(C[C@H]1CCCN1)C1(c2ccc(F)c(C(F)(F)F)c2)CC1 [[41], (R)—N-(1-(4-fluoro-3-(trifluoromethyl)phenyl)cyclopropyl)-N-(pyrrolidin-2-ylmethyl) methane sulfonamide] | 380
16 | COC(=O)N(CC1CCN1)C1(c2ccc(F)c(OC(F)(F)F)c2)CC1 (stereo not shown) [[32], Methyl (azetidin-2-ylmethyl)(1-(4-fluoro-3-(trifluoromethoxy)phenyl)cyclopropyl)carbamate] | 270
17 | COC(=O)N(CC(C)(C)N)C1(c2cccc(Br)c2)CC1 [[12], Methyl (2-amino-2-methylpropyl)(1-(3-bromophenyl)cyclopropyl)carbamate] | 400
18 | CC(C)(N)CN(C(=O)C1CC1)C1(c2ccc(F)c(C(F)(F)F)c2)CC1 [[9], N-(2-amino-2-methylpropyl)-N-(1-(4-fluoro-3-(trifluoromethyl)phenyl)cyclopropyl)cyclopropanecarboxamide] | 350
19 | COC(=O)N(C[C@@H]1CCCN1)C1(c2ccc(F)c(C(F)(F)F)c2)CC1 [[23], Methyl (S)-(1-(4-fluoro-3-(trifluoromethyl)phenyl)cyclopropyl)(pyrrolidin-2-ylmethyl)carbamate] | 120
20 | COC(=O)N(CC(C)(C)N)C1(c2cccc(Cl)c2)CC1 [[13], Methyl (2-amino-2-methylpropyl)(1-(3-chlorophenyl)cyclopropyl)carbamate] | 440
21 | COC(=O)N(CC1CCN1)C1(c2ccc(F)c(C(F)(F)F)c2)CC1 (stereo not shown) [[26], Methyl (azetidin-2-ylmethyl)(1-(4-fluoro-3-(trifluoromethyl)phenyl)cyclopropyl)carbamate] | 210
22 | COC(=O)N(CC(C)(C)N)C1(c2cc(Cl)cc(Cl)c2)CC1 [[11], Methyl (2-amino-2-methylpropyl)(1-(3,5-dichlorophenyl)cyclopropyl)carbamate] | 300

Now from value to molecule:

Row | IC50 [nM] | SMILES
23 | 230 | O=C(OCC1CC1)N(C[C@@H]1CCCN1)C1(c2ccc(F)c(C(F)(F)F)c2)CC1 [[48], Cyclopropylmethyl (S)-(1-(4-fluoro-3-(trifluoromethyl)phenyl)cyclopropyl)(pyrrolidin-2-ylmethyl)carbamate]
24 | 100 | COC(=O)N(C[C@@]1(C)CCCN1)C1(c2ccc(F)c(C(F)(F)F)c2)CC1 [[46], Methyl (R)-(1-(4-fluoro-3-(trifluoromethyl)phenyl)cyclopropyl)((2-methylpyrrolidin-2-yl)methyl)carbamate]
25 | 290 | COC(=O)N(C[C@H]1COCCN1C)C1(c2ccc(F)c(C(F)(F)F)c2)CC1 [[43], Methyl (S)-(1-(4-fluoro-3-(trifluoromethyl)phenyl)cyclopropyl)((4-methylmorpholin-3-yl)methyl)carbamate]
26 | 180 | O=C(OC1CC1)N(C[C@@H]1CCCN1)C1(c2ccc(F)c(C(F)(F)F)c2)CC1 [[45], Cyclopropyl (S)-(1-(4-fluoro-3-(trifluoromethyl)phenyl)cyclopropyl)(pyrrolidin-2-ylmethyl)carbamate]
27 | 390 | CS(=O)(=O)N(CC1(N)CC1)C1(c2ccc(F)c(C(F)(F)F)c2)CC1 [[49], N-((1-aminocyclopropyl)methyl)-N-(1-(4-fluoro-3-(trifluoromethyl)-phenyl)cyclopropyl)methanesulfonamide]
28 | 93 | N[C@H]1CCC[C@H]1NC1(c2ccc(F)c(C(F)(F)F)c2)CC1 [[52], (1R,2S)—N1-(1-(4-fluoro-3-(trifluoromethyl)phenyl)cyclopropyl)-cyclopentane-1,2-diamine]
29 | 120 | CCOC(=O)N(C[C@H]1CCCN1)C1(c2ccc(F)c(C(F)(F)F)c2)CC1 [[38], Ethyl (R)-(1-(4-fluoro-3-(trifluoromethyl)phenyl)cyclopropyl)(pyrrolidin-2-ylmethyl)carbamate]
30 | 410 | N[C@H]1CCC[C@@H]1NC1(c2ccc(F)c(C(F)(F)F)c2)CC1 [[51], (1S, 2S)—N1-(1-(4-fluoro-3-(trifluoromethyl)phenyl)cyclopropyl)-cyclopentane-1,2-diamine]
31 | 52 | CCOC(=O)N(C[C@@H]1CCCN1)C1(c2ccc(F)c(C(F)(F)F)c2)CC1 [[34], Ethyl (S)-(1-(4-fluoro-3-(trifluoromethyl)phenyl)cyclopropyl)(pyrrolidin-2-ylmethyl)carbamate]
32 | 150 | COC(=O)N(C[C@]1(C)CCCN1)C1(c2ccc(F)c(C(F)(F)F)c2)CC1 [[50], Methyl (S)-(1-(4-fluoro-3-(trifluoromethyl)phenyl)cyclopropyl)((2-methylpyrrolidin-2-yl)methyl)carbamate]
33 | 420 | COC(=O)N(C[C@@H]1COCCN1)C1(c2ccc(F)c(C(F)(F)F)c2)CC1 [[39], Methyl (R)-(1-(4-fluoro-3-(trifluoromethyl)phenyl)cyclopropyl)(morpholin-3-ylmethyl) carbamate]
34 | 140 | CN1CCC[C@H]1CN(C1(c2ccc(F)c(C(F)(F)F)c2)CC1)S(C)(=O)=O [[37], (S)—N-(1-(4-fluoro-3-(trifluoromethyl)phenyl)cyclopropyl)-N-((1-methylpyrrolidin-2-yl)methyl)methanesulfonamide]
